In ChEMBL document CHEMBL1697781, “Assessment of the health effects of chemicals in humans: II. Construction of an adverse effects database for QSAR modeling” (Curr Drug Discov Technol, 2004):

How the values were obtained:
Settings in all cases: human; call rule not given here
[1] = system: Hepatotoxicity; assay: FDA HLAED, serum glutamic oxaloacetic transaminase (SGOT) increase
[2] = system: Hepatotoxicity; assay: FDA HLAED, serum glutamic pyruvic transaminase (SGPT) increase
[3] = system: Hepatotoxicity; assay: FDA HLAED, gamma-glutamyl transferase (GGT) increase
[4] = system: Hepatotoxicity; assay: FDA HLAED, alkaline phosphatase increase
[5] = system: Hepatotoxicity; assay: FDA HLAED, liver enzyme composite activity
[6] = system: Hepatotoxicity; assay: FDA HLAED, lactate dehydrogenase (LDH) increase
Throughout, for GGT Increase - Index Value: reference of the scale not given here.
Throughout, for LDH Increase - Index Value: reference of the scale not given here.

Row | Compound | SGOT Increase - Activity Score [1] | SGOT Increase - Index Value [1] | SGOT Increase - Number of Reports [1] | SGPT Increase - Activity Score [2] | SGPT Increase - Index Value [2] | SGPT Increase - Number of Reports [2] | GGT Increase - Activity Score [3] | GGT Increase - Index Value [3] | GGT Increase - Number of Reports [3] | Alkaline Phosphatase Increase - Activity Score [4] | Alkaline Phosphatase Increase - Index Value [4] | Alkaline Phosphatase Increase - Number of Reports [4] | Composite Activity - Active [5] | Composite Activity - Marginal [5] | Composite Activity - Score [5] | LDH Increase - Activity Score [6] | LDH Increase - Index Value [6] | LDH Increase - Number of Reports [6]
1 | CC1=C(/C=C/C(C)=C/C=C/C(C)=C\C(=O)O)C(C)(C)CCC1 [ISOTRETINOIN] | Active | 98.4 | >= 4 | Active | 63.7 | >= 4 | Inactive | 0 | < 4 | Active | 45.7 | >= 4 | 4 | 0 | Active | Active | 54 | >= 4
2 | COC(=O)C1=C(C)NC(C)=C(C(=O)OC(C)C)C1c1cccc2nonc12 (stereo not given) [ISRADIPINE] | Inactive | 0.8 | >= 4 | Inactive | 0.7 | >= 4 | Inactive | 0.2 | < 4 | Inactive | 0.5 | < 4 | 0 | 0 | Inactive | Inactive | 0.3 | < 4
3 | CCC(C)n1ncn(-c2ccc(N3CCN(c4ccc(OCC5COC(Cn6cncn6)(c6ccc(Cl)cc6Cl)O5)cc4)CC3)cc2)c1=O (stereo not given) [ITRACONAZOLE] | Active | 19.6 | >= 4 | Active | 19.8 | >= 4 | Active | 14.1 | >= 4 | Active | 12.4 | >= 4 | 5 | 0 | Active | Active | 5.8 | >= 4
4 | CC(=O)N1CCN(c2ccc(OCC3COC(Cn4ccnc4)(c4ccc(Cl)cc4Cl)O3)cc2)CC1 (stereo not given) [KETOCONAZOLE] | Active | 14.7 | >= 4 | Active | 10.7 | >= 4 | Inactive | 0 | < 4 | Active | 5.4 | >= 4 | 3 | 0 | Active | Inactive | 2.7 | < 4
5 | CC(C(=O)O)c1cccc(C(=O)c2ccccc2)c1 (stereo not given) [KETOPROFEN] | Inactive | 0.6 | < 4 | Inactive | 0.4 | < 4 | Inactive | 0 | < 4 | Inactive | 0.6 | < 4 | 0 | 0 | Inactive | Inactive | 0.4 | < 4
